# Test results published in patent US20250221960A1, “COMPOSITIONS AND METHODS FOR THE TREATMENT OF DEPRESSION” (Janssen Pharmaceuticals, Inc., priority 2022, published 2025).
# Key:
# [1] = Weight change by treatment group, Example 1; type: in vivo, human
# Experimental: Treatment with aticaprant as described herein has several advantages over the treatments in the art. […] As used herein, the term “weight gain” refers to an increase in the weight of patient, relative to the weight of the patient before taking aticaprant or the weight of the patient that is assessed at the time of the initial administration of the aticaprant. In certain embodiments, the patient may actually see a decrease in overall weight, relative to the weight of the patient before taking aticaprant.
# At the lead-in baseline timepoint, the mean weight for subjects in the placebo group was 76.17 kg compared to 78.66 in the aticaprant group. After 6 weeks in the double-blind treatment phase, the mean weight in the placebo group was 75.75 kg compared to 78.57 kg in the aticaprant group. […] This is unexpected because other adjunctive treatments for MDD result in a mean weight increase. See, Thase M, et al. J Clin Psych. 2015: 76 (9), 1224-1231; Thase, J Clin Psych. 2015, 76 (9): 1232-1240; El Khalili, Int J Neuropsychopharmacol. 2010, 13, 917-932; Marcus, J. Clin. Psychopharmacol. […] Nashville, Tenn, ACNP, 2008; Earley, American College of Neuropsychopharmacology, 2007, Annual Meeting Abstracts (Boca Raton, Fla, Dec. 9-13, 2007). Nashville, TN, ACNP, 2007). See, Table 29.
# subjects with MDD [2] = assay: SATE score, Example 1; type: in vivo, human; conditions: Treatment Week 6, 10 mg
# Excerpt: SATE is a one to three questionnaire administered when the subject is unable to complete other evaluations, i.e., away from the clinical setting such as at home. SATE is useful to evaluate improvement or deterioration of depressive symptoms of the subjects over a short period of time. […] See, Table C.
# iv. To investigate the effect of aticaprant on symptoms of depression using the Clinical Global Impression-Severity (CGI-S), the patient reported Symptoms of Major Depressive Disorder Scale (SMDDS) and the self-assessment of treatment experience (SATE).
# • (i) Depression: Montgomery-Åsberg Depression Rating Scale (MADRS), Clinical Global Impression-Severity (CGI-S), Symptoms of Major Depressive Disorder Scale (SMDDS), and Self-assessment of treatment experience (SATE) • (ii) Anhedonia: Snaith-Hamilton Pleasure Scale (SHAPS) • (iii) Anxiety: Structured Interview Guide for the Hamilton Anxiety scale (SIGH-A) and HAM-A6 • (iv) Effects on Cognition: The Cognitive and Physical Functioning Questionnaire (CPFQ) • (v) Safety assessments
# subjects with MDD [3] = assay: MADRS total score, adjunctive aticaprant vs placebo (Example 1); conditions: for MADRS Total Score: Mean Change from Baseline (SD) / MADRS Total Score: Effect size / MADRS Total Score: Mean Change to Placebo (SD pooled): fITT
# [4] = High anhedonia, Treatment Week 1
# [5] = High anhedonia, Treatment Week 3
# [6] = High anhedonia, Treatment Week 4
# [7] = High anhedonia, Treatment Week 5
# [8] = High anhedonia, Treatment Week 6
# [9] = Low anhedonia, Treatment Week 1
# [10] = Low anhedonia, Treatment Week 3
# [11] = Low anhedonia, Treatment Week 4
# [12] = Low anhedonia, Treatment Week 5
# [13] = Low anhedonia, Treatment Week 6
structure (smiles),measurement,setting,value
"Cc1cc(C)cc(C2CCCN2Cc2ccc(Oc3ccc(C(N)=O)cc3F)cc2)c1 (stereo not shown) [aticaprant, 3-fluoro-4-4-2-(3,5-dimethylphenyl) pyrrolidin-1-yl-methylphenoxybenzamide]",Mean weight: Relative % Change,"[1]; Withdrawal vs Lead-in, n = 85",−0.11%
same,weight over the 6-week double blind treatment period,[1]; in vivo,remained relatively stable
same,Mean weight: Absolute Change (Withdrawal - Lead-in),[1]; n = 85,-0.09 kg
same,Number of Subjects with SATE Score: Depression Worsened (Much worse),subjects with MDD [2]; n = 0,0 subjects
same,Number of Subjects with SATE Score: Depression Worsened (Slightly worse),subjects with MDD [2]; n = 0,0 subjects
same,Number of Subjects with SATE Score: Depression Worsened (Very much worse),subjects with MDD [2]; n = 0,0 subjects
same,Number of Subjects with SATE Score: Depression Much improved,subjects with MDD [2]; n = 21,6 subjects
same,Number of Subjects with SATE Score: Depression Slightly improved,subjects with MDD [2]; n = 21,15 subjects
same,Number of Subjects with SATE Score: Depression Very Much Improved,subjects with MDD [2]; n = 21,0 subjects
same,Number of Subjects with SATE Score: Overall Depression (Got worse),subjects with MDD [2]; n = 30,0 subjects
same,Number of Subjects with SATE Score: Overall Depression (Improved),subjects with MDD [2]; n = 30,21 subjects
same,Number of Subjects with SATE Score: Overall Depression (Not changed),subjects with MDD [2]; n = 30,9 subjects
same,MADRS Total Score: Mean Change from Baseline (SD),"subjects with MDD [3]; High anhedonia (SHAPS >=38 at treatment baseline), Treatment Week 1",−4.4 (5.04)
same,MADRS Total Score: Effect size,subjects with MDD [3]; [4],−0.45
same,MADRS Total Score: Mean Change to Placebo (SD pooled),subjects with MDD [3]; [4],−2.0 (4.38)
same,MADRS Total Score: Effect size,subjects with MDD [3]; [5],−0.54
same,MADRS Total Score: Mean Change from Baseline (SD),subjects with MDD [3]; [5],−6.9 (6.66)
same,MADRS Total Score: Mean Change to Placebo (SD pooled),subjects with MDD [3]; [5],−3.8 (6.94)
same,MADRS Total Score: Effect size,subjects with MDD [3]; [6],−0.50
same,MADRS Total Score: Mean Change from Baseline (SD),subjects with MDD [3]; [6],−8.6 (7.32)
same,MADRS Total Score: Mean Change to Placebo (SD pooled),subjects with MDD [3]; [6],−3.8 (7.56)
same,MADRS Total Score: Effect size,subjects with MDD [3]; [7],−0.51
same,MADRS Total Score: Mean Change from Baseline (SD),subjects with MDD [3]; [7],−10.2 (8.04)
same,MADRS Total Score: Mean Change to Placebo (SD pooled),subjects with MDD [3]; [7],−4.0 (7.87)
same,MADRS Total Score: Effect size,subjects with MDD [3]; [8],−0.51
same,MADRS Total Score: Mean Change from Baseline (SD),subjects with MDD [3]; [8],−11.3 (8.69)
same,MADRS Total Score: Mean Change to Placebo (SD pooled),subjects with MDD [3]; [8],−4.6 (9.03)
same,MADRS Total Score: Mean Change from Baseline (SD),"subjects with MDD [3]; Low anhedonia (SHAPS >=20 and <38 at treatment baseline), Treatment Week 1",−2.4 (4.59)
same,MADRS Total Score: Effect size,subjects with MDD [3]; [9],−0.24
same,MADRS Total Score: Mean Change to Placebo (SD pooled),subjects with MDD [3]; [9],−1.0 (4.39)
same,MADRS Total Score: Effect size,subjects with MDD [3]; [10],−0.08
same,MADRS Total Score: Mean Change from Baseline (SD),subjects with MDD [3]; [10],−4.1 (6.67)
same,MADRS Total Score: Mean Change to Placebo (SD pooled),subjects with MDD [3]; [10],−0.5 (6.37)
same,MADRS Total Score: Effect size,subjects with MDD [3]; [11],−0.23
same,MADRS Total Score: Mean Change from Baseline (SD),subjects with MDD [3]; [11],−6.4 (6.77)
same,MADRS Total Score: Mean Change to Placebo (SD pooled),subjects with MDD [3]; [11],−1.5 (6.65)
same,MADRS Total Score: Effect size,subjects with MDD [3]; [12],−0.10
same,MADRS Total Score: Mean Change from Baseline (SD),subjects with MDD [3]; [12],−7.3 (6.90)
same,MADRS Total Score: Mean Change to Placebo (SD pooled),subjects with MDD [3]; [12],−0.7 (6.86)
same,MADRS Total Score: Effect size,subjects with MDD [3]; [13],−0.29
same,MADRS Total Score: Mean Change from Baseline (SD),subjects with MDD [3]; [13],−8.8 (7.48)
same,MADRS Total Score: Mean Change to Placebo (SD pooled),subjects with MDD [3]; [13],−2.3 (7.80)
same,"Change from Treatment Baseline in MADRS Total Score, Least Squares Mean Difference point estimate","subjects with MDD [3]; Treatment Week 6, both responders and non-responders during placebo lead-in, 10 mg vs placebo",−3.1 score on a scale
same,"MADRS LSMeans difference estimate, supplementary MMRM analysis (data prior to 15 Mar. 2020, COVID-19)",subjects with MDD [3]; eITT,−3.0
same,MADRS Total Score Mean Change to Placebo,"subjects with MDD [3]; eITT, High anhedonia (baseline SHAPS >=38), Treatment Week 1",−1.8
same,MADRS Total Score Mean Change to Placebo,"subjects with MDD [3]; eITT, High anhedonia (baseline SHAPS >=38), Treatment Week 3",−3.0
same,MADRS Total Score Mean Change to Placebo,"subjects with MDD [3]; eITT, High anhedonia (baseline SHAPS >=38), Treatment Week 4",−2.2
same,MADRS Total Score Mean Change to Placebo,"subjects with MDD [3]; eITT, High anhedonia (baseline SHAPS >=38), Treatment Week 5",−2.6
same,MADRS Total Score Mean Change to Placebo,"subjects with MDD [3]; eITT, High anhedonia (baseline SHAPS >=38), Treatment Week 6",−3.4
same,MADRS Total Score Mean Change to Placebo,"subjects with MDD [3]; eITT, Low anhedonia (baseline SHAPS >=20 and <38), Treatment Week 1",−0.5
same,MADRS Total Score Mean Change to Placebo,"subjects with MDD [3]; eITT, Low anhedonia (baseline SHAPS >=20 and <38), Treatment Week 3",−0.1
same,MADRS Total Score Mean Change to Placebo,"subjects with MDD [3]; eITT, Low anhedonia (baseline SHAPS >=20 and <38), Treatment Week 4",0.0
same,MADRS Total Score Mean Change to Placebo,"subjects with MDD [3]; eITT, Low anhedonia (baseline SHAPS >=20 and <38), Treatment Week 5",0.3
same,MADRS Total Score Mean Change to Placebo,"subjects with MDD [3]; eITT, Low anhedonia (baseline SHAPS >=20 and <38), Treatment Week 6",−0.9
same,"MADRS Total Score Change from Baseline LSMean (SE), MMRM","subjects with MDD [3]; eITT, Treatment Week 1, 10 mg",3.2
